Reference: paper PMC9841589, “Identification of 2-Aminoacyl-1,3,4-thiadiazoles as Prostaglandin E2 and Leukotriene Biosynthesis Inhibitors” (ACS Medicinal Chemistry Letters, 2022)

Tests used:
Human recombinant 5-LO = target: T1, Human recombinant 5-LO (Homo sapiens, UniProt P09917); test: Cell-free 5-LO activity assay; type: biochemical; conditions: percentage of uninhibited control (100%), n = 3; n.i.: no inhibitory activity observed
T1 construct: made in house; host or cells: E. coli BL21 transformed with pT3-5-LO plasmid
T1 sequence (P09917 1-674): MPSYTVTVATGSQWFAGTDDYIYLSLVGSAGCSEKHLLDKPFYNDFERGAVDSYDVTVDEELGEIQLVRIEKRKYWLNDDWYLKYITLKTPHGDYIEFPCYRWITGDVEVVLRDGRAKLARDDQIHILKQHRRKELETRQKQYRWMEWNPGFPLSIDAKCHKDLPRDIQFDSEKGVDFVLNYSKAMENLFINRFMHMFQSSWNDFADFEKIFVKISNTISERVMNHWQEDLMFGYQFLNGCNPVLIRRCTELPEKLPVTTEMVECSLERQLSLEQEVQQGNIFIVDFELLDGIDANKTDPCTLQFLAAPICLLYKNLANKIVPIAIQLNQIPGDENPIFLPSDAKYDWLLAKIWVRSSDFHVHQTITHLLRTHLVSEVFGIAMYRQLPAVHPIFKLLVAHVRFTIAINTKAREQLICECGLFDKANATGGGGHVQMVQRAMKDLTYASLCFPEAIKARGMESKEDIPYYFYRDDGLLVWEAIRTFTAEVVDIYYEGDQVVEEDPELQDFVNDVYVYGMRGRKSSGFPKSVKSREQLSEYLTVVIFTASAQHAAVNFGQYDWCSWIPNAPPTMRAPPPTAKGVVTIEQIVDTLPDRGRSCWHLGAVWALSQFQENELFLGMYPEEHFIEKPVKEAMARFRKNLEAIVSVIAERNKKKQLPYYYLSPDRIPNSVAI
Method: mM glutathione, and 250 mM sucrose) and the protein concentration was defined. Potassium phosphate buffer (0.1 M, pH = 7.4) plus glutathione (2.5 mM) was added to dilute microsomes, which were then seeded in a 96-well plate. Test compounds 1-9 (10 µM) or DMSO (1%) were added and preincubated for 15 min on ice. MK886 (10 µM) and MD-52 (1 µM) were used as reference drugs.
The reactions started by adding 20 µM of PGH2, and 1 min later, 100 µl of a solution containing FeCl3 (40 mM), citric acid (80 mM), and 11β-PGE 2 (10 µM) were added for stopping the conversion of PGH2. After the extraction of PGE2 and 11β-PGE 2 (internal stardard) by solid-phase extraction, the quantity of product formation (PGE2) was determined by RP-HPLC.114
Cell-free 5-LO activity assay
Human recombinant 5-LO was expressed in E.coli BL21 transformed with pT3-5-LO plasmid at 30 °C overnight 15.2 A lysis buffer (50 mM triethanolamine, pH = 8.0, 5 mM EDTA, 1 mM phenylmethanesulfonyl fluoride, 60 µg/mL soybean trypsin inhibitor, 2 mM dithiothreitol and lysozyme) was added. […] Finally, a solid-phase extraction then was performed using C18 RP-columns (100 mg, UCT, Bristol, PA, USA) and RP-HPLC was used to quantify 5-LOX products.3 16 The 5-LO inhibitor zileuton (3 µM) was used as positive control. […]

mPGES-1 = target: T2, mPGES-1 (Homo sapiens, UniProt O14684); test: Cell-free mPGES-1 activity assay (PGE2 biosynthesis); type: biochemical; conditions: for remaining activity at 10 µM: percentage of control (100%), read-out: mPGES-1 residual activity at 10 μM (%); for IC50: n = 3, read-out: IC50 value ± SEM (mPGES-1, cell-free)
T2 construct: endogenous in cells; host or cells: A549 cells stimulated with IL-1β; microsomal fraction
T2 sequence (O14684 1-152): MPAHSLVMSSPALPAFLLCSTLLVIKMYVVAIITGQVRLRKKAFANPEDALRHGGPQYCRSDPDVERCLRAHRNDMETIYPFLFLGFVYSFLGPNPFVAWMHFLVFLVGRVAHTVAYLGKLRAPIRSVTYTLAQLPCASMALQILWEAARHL
Description: (Table 1). […] From the structural point of view, the biological affinities of compounds 3 and 7 (Figure 2A and C) could be positively affected by the 2-bromobenzoyl substituent able to accommodate in a deep binding pocket on the mPGES-1 surface. This moiety interacts by van der Waals contacts with amino acids of the cytoplasmic part and establishes π-stacking with Phe44ChainC and His53ChainC hydrogen bonds with Ser127, and a halogen bond between the bromine atom and the side chain of Aps49ChainC. Furthermore, the 3-phenylphenol and 2-aminobiphenyl moieties of 3 and 7 (Figure 2A and C), respectively, are able to establish a peculiar π-stacking with Tyr130ChainA and a hydrogen bond with Gln134ChainA. […]
mM glutathione, and 250 mM sucrose) and the protein concentration was defined. Potassium phosphate buffer (0.1 M, pH = 7.4) plus glutathione (2.5 mM) was added to dilute microsomes, which were then seeded in a 96-well plate. […]
preincubated for 15 min on ice. MK886 (10 µM) and MD-52 (1 µM) were used as reference drugs.
The reactions started by adding 20 µM of PGH2, and 1 min later, 100 µl of a solution containing FeCl3 (40 mM), citric acid (80 mM), and 11β-PGE 2 (10 µM) were added for stopping the conversion of PGH2. After the extraction of PGE2 and 11β-PGE 2 (internal stardard) by solid-phase extraction, […]

[1] = system: LPS-stimulated J774A.1 macrophages; test: Determination of IL-6 and PGE2 in murine macrophages; type: cell-based, mouse; conditions: J774A.1, LPS 10 μg/mL, compound 1 μM, 24 h
Method: LOX product analysis, using an MRM method with diagnostic ion fragments and identification, was performed as described previously.922 Determination of IL-6 and PGE2 in murine macrophages Mouse macrophage cell line (J774A.1, ATCC® TIB-67™) was cultured in DMEM supplemented with FBS (ATCC® 30-2020™) to a final concentration of 10%. Cells were seeded in petri culture (100 × 20 mm, Falcon ®) at a density of 5 × 10^5 cells per dish and allowed to grow for dishes 24 h. The medium was then replaced, and cells were treated with LPS (10 ) in the presence or absence of μg/ml compounds 3, 6, 7, 9 (1 µM). Following incubations of 24 h, cells were collected with a cell scraper and, after centrifugation at 14000 × g for 10 min at 4 °C, the supernatant was collected and stored at −80°C for ELISA analysis 1023.

SMILES | 5-LO residual activity (%) (Human recombinant 5-LO) | remaining activity at 10 µM (mPGES-1) [%] | IC50 (mPGES-1) [nM] | IL-6 production [1] | PGE2 production [1]
O=C(Nc1nnc(-c2ccc(-c3cccc(O)c3)cc2)s1)c1ccccc1Br [compound 3] | n.i. (125) % | 8.4 | 200 | able to modulate | able to modulate
Nc1ccccc1-c1ccc(-c2nnc(NC(=O)c3ccccc3Br)s2)cc1 [compound 7] | – | 16.7 | 150 | – | displayed a similar activity only in terms of PGE2 modulation
Cc1cc(C(=O)Nc2nnc(-c3ccc(-c4ccccc4N)cc3)s2)cc(Cl)n1 [compound 6] | – | 31.7 | 3100 ± 600 | – | –
Nc1ccccc1-c1ccc(-c2nnc(NC(=O)c3c(Cl)ccnc3Cl)s2)cc1 [compound 9] | n.i. (75.9) % | 20.9 | 1700 ± 300 | – | –
